From article PMC9491098, “Discovery of novel drug-like antitubercular hits targeting the MEP pathway enzyme DXPS by strategic application of ligand-based virtual screening” (Chemical Science, 2022)

These compounds were tested against MtDXPS (Mycobacterium tuberculosis, UniProt P9WNS3) (assay: biochemical). Settings: Table S1, first round of LBVS; MtDXPS; read-out: IC50.
MtDXPS, sequence (P9WNS3 whole entry, looked up): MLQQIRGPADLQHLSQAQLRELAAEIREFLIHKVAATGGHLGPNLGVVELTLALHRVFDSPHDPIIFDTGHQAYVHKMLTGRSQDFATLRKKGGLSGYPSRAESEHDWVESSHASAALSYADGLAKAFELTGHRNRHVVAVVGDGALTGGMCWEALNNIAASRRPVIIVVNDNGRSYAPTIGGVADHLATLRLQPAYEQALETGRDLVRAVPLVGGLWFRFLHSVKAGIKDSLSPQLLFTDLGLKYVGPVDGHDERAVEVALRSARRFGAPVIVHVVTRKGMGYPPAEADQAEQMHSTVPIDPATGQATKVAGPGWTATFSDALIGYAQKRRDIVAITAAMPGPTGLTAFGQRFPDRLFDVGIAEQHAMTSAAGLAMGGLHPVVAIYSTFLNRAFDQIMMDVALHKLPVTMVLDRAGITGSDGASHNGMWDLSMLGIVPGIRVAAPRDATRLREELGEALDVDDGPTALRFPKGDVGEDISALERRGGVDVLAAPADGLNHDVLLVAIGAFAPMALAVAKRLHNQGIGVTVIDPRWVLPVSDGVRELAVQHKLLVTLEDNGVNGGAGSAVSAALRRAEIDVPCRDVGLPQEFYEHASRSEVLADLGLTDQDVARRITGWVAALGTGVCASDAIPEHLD

`O=c1c2ncccc2nc(O)n1Cc1cccnc1` [Compound 65] and `CCCSc1nnc(-c2ccccc2NC(C)=O)c(O)n1` [Compound 89] cannot be ordered by IC50: > 240 µM for the first, > 120 µM for the second.

`COCC(=O)N(C)Cc1cn(C)nc1C` [Compound 66] and `CCCCNC(=O)N(C)Cc1c(C)nn(CC)c1C` [Compound 69] cannot be ordered by IC50: > 1000 µM for the first, > 1000 µM for the second.

`CCn1nccc1CN(C)C(=O)C1CCC1` [Compound 67] and `CCC1CCC2(CC1)N=C(O)N(CC(=O)c1ccc3c(c1)CCC3)C2=O` (stereo not shown) [Compound 71] cannot be ordered by IC50: > 1000 µM for the first, > 60 µM for the second.

`CN1C(=O)CCC(C(=O)O)C1c1ccccc1` (stereo not shown) [Compound 68] and `CN1NC(c2ccc(O)cc2)C2C(=O)NC(=O)C21` (stereo not shown) [Compound 85] cannot be ordered by IC50: > 1000 µM for the first, > 120 µM for the second.

`COc1ccc(Cn2ccnc2)cc1N` [Compound 70] and `CCc1cc(C(N)=O)c(NC(=O)c2cccnc2)s1` [Compound 87] cannot be ordered by IC50: > 1000 µM for the first, > 60 µM for the second.

`Cc1cc(C)n(CCc2nnc(S)n2-c2ccc(Br)cc2)n1` [Compound 72] and `Cc1ccc(-n2c(S)nnc2CCn2nc(C)cc2C)cc1` [Compound 73] cannot be ordered by IC50: > 120 µM for the first, > 500 µM for the second.

`Cc1cc(C)n(CCc2nnco2)n1` [Compound 74] and `CCCCC(NS(=O)(=O)c1cc2c3c(c1)c(C)cc(=O)n3CC2)C(=O)O` (stereo not shown) [Compound 90] cannot be ordered by IC50: > 1000 µM for the first, > 60 µM for the second.

`O=C(O)c1cc(O)ccc1C=C(Cl)Cl` [Compound 79] and `O=C(Nc1ccc(O)cc1C(=O)O)c1ccco1` [Compound 81] cannot be ordered by IC50: > 1000 µM for the first, > 60 µM for the second.

`CCCCC(C(=O)O)C(C)CC(=O)Nc1nncs1` (stereo not shown) [Compound 80] and `Cc1ccc(C(=O)Nc2ccc(O)cc2C(=O)O)cc1` [Compound 86] cannot be ordered by IC50: > 1000 µM for the first, > 120 µM for the second.

`Cc1c(/N=C2\C(=O)N(CC(=O)O)c3ccccc32)c(=O)n(-c2ccccc2)n1C` [Compound 84] and `COc1cc(/C=C2\C(=O)Nc3ccc(Br)cc32)cc(OC)c1O` [Compound 88] cannot be ordered by IC50: > 120 µM for the first, > 120 µM for the second.

Same assay, conditions: Table S2, second round of LBVS; MtDXPS; read-out: IC50

`OCCc1nc2ccccc2n1Cc1cccc(Cl)c1` [Compound 100] and `OCCc1nc2ccccc2n1Cc1ccc(Cl)cc1` [Compound 101] cannot be ordered by IC50: > 236 µM for the first, > 440 µM for the second.

`OCCc1nc2ccccc2n1Cc1ccc(F)cc1` [Compound 102] and `CC(C)(C)c1ccc(Cn2c(CCCO)nc3ccccc32)cc1` [Compound 103] cannot be ordered by IC50: > 540 µM for the first, > 90 µM for the second.

`CC(C)Cc1nc2ccccc2n1Cc1ccc(Cl)cc1` [Compound 104] and `COc1ccc(Cc2nc3ccccc3n2CC(O)CO)cc1` (stereo not shown) [Compound 105] cannot be ordered by IC50: > 63 µM for the first, > 2000 µM for the second.

`CNc1ncc2c(n1)CN(CCc1ccccc1F)C2=O` [Compound 106] and `Nc1ncc2c(n1)CN(Cc1ccccc1C(F)(F)F)C2=O` [Compound 107] cannot be ordered by IC50: > 340 µM for the first, > 380 µM for the second.

`Nc1ncc2c(n1)CN(Cc1ccc3c(c1)OCO3)C2=O` [Compound 108] and `O=C1/C(=N\O)c2ccc(Cl)cc2N1Cc1ccccc1` [Compound 112] cannot be ordered by IC50: > 260 µM for the first, > 900 µM for the second.

`Cc1ccc(/C(=N\O)c2ccc(O)cc2O)cc1` [Compound 110] and `COc1ccc(OC/C(=N\O)c2ccc(O)cc2O)cc1` [Compound 111] cannot be ordered by IC50: > 1000 µM for the first, > 300 µM for the second.

`O=C1/C(=N\O)c2c(Cl)cccc2N1Cc1ccccc1` [Compound 113] and `Cc1ccc(C)c2c1/C(=N/O)C(=O)N2Cc1ccccc1` [Compound 114] cannot be ordered by IC50: > 30 µM for the first, > 60 µM for the second.

`ON=C(c1ccccc1)c1ccccc1` [Compound 115] and `O/N=C(/c1ccccc1)c1ccccn1` [Compound 117] cannot be ordered by IC50: > 500 µM for the first, > 500 µM for the second.

`Nc1ccncc1/C(=N/O)c1ccccc1` [Compound 116] and `NC1=NC(c2ccccc2F)n2c(nc3ccccc32)N1` (stereo not shown) [Compound 123] cannot be ordered by IC50: > 2000 µM for the first, > 120 µM for the second.

`Cc1sc(-n2c(C)cc(/C=N/O)c2C)c(C(=O)O)c1C` [Compound 118] and `O/N=C/c1cccn1-c1ccc(Br)cc1` [Compound 121] cannot be ordered by IC50: > 800 µM for the first, > 200 µM for the second.

`CC(C)(C)C(O)/C(=N/O)n1cncn1` (stereo not shown) [Compound 120] and `NC1=NC(c2ccc(O)c(O)c2)n2c(nc3ccccc32)N1` (stereo not shown) [Compound 126] cannot be ordered by IC50: > 200 µM for the first, > 160 µM for the second.

`CCCOc1ccc(C2N=C(N)Nc3nc4ccccc4n32)cc1` (stereo not shown) [Compound 122] and `CCc1ccc(C2N=C(N)Nc3nc4ccccc4n32)cc1` (stereo not shown) [Compound 124] cannot be ordered by IC50: > 50 µM for the first, > 30 µM for the second.

`CN(C)c1ccc(C2NC(N)=Nc3nc4ccccc4n32)cc1` (stereo not shown) [Compound 125] was tested, and the IC50 was > 200 µM.

Same assay, conditions: Table S3, third round of LBVS; MtDXPS; read-out: IC50

`FC(F)(F)c1ccc(Nc2nc(-c3ccncc3)cs2)cc1` [Compound 132] and `Cc1nc(NC(=O)c2ccccc2)sc1-c1csc(Nc2ccc(C(F)(F)F)cc2)n1` [Compound 133] cannot be ordered by IC50: > 60 µM for the first, > 120 µM for the second.

`Cc1ccc(-c2csc(Nc3cccc(Cl)c3C)n2)cc1` [Compound 134] and `Cc1c(Cl)cccc1Nc1nc(-c2cccnc2)cs1` [Compound 135] cannot be ordered by IC50: > 16 µM for the first, > 200 µM for the second.
